One compound from PMC5471453, “Dual-targeted peptide-conjugated multifunctional fluorescent probe with AIEgen for efficient nucleus-specific imaging and long-term tracing of cancer cells” (Chemical Science, 2017) can be followed below.

In series [1] the test system is A375 cells. Kind of series: Long-term tracing of cancer cells over culture cycles (CLSM). It counts as cell-based, human. Conditions: 3 μM for 4 h, after the fifth culture cycle (5 d). How it is done: Due to reverse diffusion, most conventional dyes cannot be retained in living cells for more than a few hours.[35] Although some cell-tracker fluorescence dyes, for example Hoechst stains, can remain in viable cells for a few generations, they bind to DNA and thus interfere with DNA replication during cell division which can be cytotoxic. […] A375 cells were incubated separately with each of 3 μM TCNTP and Hoechst 33258. After 4 h incubation, the probe (or dye) was discarded and the labelled cells continued to be cultured overnight. Then the labelled cells were digested and divided into two dishes for another overnight incubation, referred to as one culture cycle. […] While the yellow fluorescence of TCNTP mainly distributed to cytoplasm for the third culture cycle (3 d) due to degradation of peptides and redistribution of the probe during cell division. […]
Fig. 5 The CLSM imaging of A375 cells treated with 3 μM TCNTP (A) and 3 μM Hoechst 33258 (B) for 4 h with further incubation for 1 d, 3 d and 5 d in cell culturing conditions. (C) The average fluorescence intensity of TCNTP and Hoechst 33258 in 60× microscopic field (the insets). […]
The cells stained by TCNTP were still visible even after the tenth culture cycle (Fig. S20 ^†), whereas very weak fluorescence signals were detected in the Hoechst 33258-stained cells after the third culture cycle (Fig. 5B). […]

For series [2], the system named is MDA-MB-231 cells, HT-1080 cells, A375 cells and HLF cells. Kind of series: MTT assay of cell viability. It counts as cell-based. Conditions: 1 μM, 5 μM and 10 μM for 48 h in triplicate, 96-well plate; absorbance 570 nm; all the cell lines. How it is done: Japan). All fluorescence images were analysed with FV10-ASW V4.0 Image software (Olympus). Three-dimensional map of cells were used 3D rendering by Imaris (Andor-Bitplane, Zurich). Co-localization analysis were used Image-Pro Plus 6.0.
The cytotoxic potential of PyTPE, Hoechst 33258 and TCNTP was assessed using the MTT assay. MDA-MB-231 cells, HT-1080 cells, A375cells and HLF cells were respectively treated with PyTPE (1 μM, 5 μM and 10 μM), Hoechst 33258 (1 μM, 5 μM and 10 μM) and TCNTP (1 μM, 5 μM and 10 μM) for 48 h in triplicate in a 96-well plate. The absorbance of MTT at 570 nm was recorded by the Infinite M200 PRO […]
Fig. S21 Metabolic viability of (A) MDA-MB-231 cells, (B) HT-1080 cells, (C) A375 cells and (D) HLF cells after incubation with PyTPE and TCNTP at concentrations of 1 μM, 5 µM and 10 µM for 48 h. Black bars represent PyTPE, red bars represent TCNTP and blue bars […]
Fig. S22 Fluorescence images of HLF cells treated with 3 µM PyTPE (A) and TCNTP (B) with Hoechst 33258 of each formulation for 12h in cell culturing condition. The white scale […]
(Formazan colour is commonly taken as a measure of viable cells.)

Series [3] has as its system A375 cells co-cultured with MDA-MB-231 cells or HLF cells. As to the kind of experiment: Leak-free marking: stained A375 cells co-cultured with unstained cells. The format is cell-based, human. Conditions: co-cultured with MDA-MB-231 or HLF cells for 24 h; CLSM. The source says: The cytocompatible nature of TCNTP and its precisely targeted interaction with organelles may account for the leak-free marking inside cells. A375 cells stained by TCNTP were co-cultured with MDA-MB-231 cells or human lung fibroblast (HLF) cells (normal human cell line), in order to evaluate whether TCNTP could be utilized to discriminate between different cell lines. TCNTP could easily stain the MDA-MB-231 cells and HLF cells in monoculture experiment (Fig. S22 ^†).
The excellent intracellular preservation of TCNTP may be used to develop novel fluorescent probes for differentiating specific cancerous cells from normal cells and for tracing diffusion, necrosis, shrinkage and suppression processes of tumor cells.
Fig. 6 The experimental scheme of TCNTP-stained (A) or Hoechst 33258-stained (F) A375 cells co-cultured with unstained cells. The CLSM imaging of co-cultivated TCNTP-stained (B) A375 cells and unstained MDA-MB-231 cells (the blue ellipses) or (D) TCNTP-stained A375 cells and unstained HLF cells (the blue ellipses). The average fluorescence intensity of TCNTP in four partial enlarged views (C and E). […] The average fluorescence intensity of Hoechst 33258 in four partial enlarged views (H and J). The blue fluorescence channel: excitation wavelength, 405 nm; emission collected, 425–485 nm. The yellow fluorescence channel: excitation wavelength, 405 nm; emission collected, 495–575 nm. […]

Turning to `CN1CCN(c2ccc3[nH]c(-c4ccc5[nH]c(-c6ccc(O)cc6)nc5c4)nc3c2)CC1` [Hoechst 33258], the “Active Cells Remaining (number of remaining stained living cells)” value in series [1] (10× microscopic field) came to 2%. Also, in series [1] (60× microscopic field), the “Signal Remaining (fluorescence signal remaining)” value turned out to be 6%. Also, the “toxicity by MTT assay of cell viability” value in series [2] is “high toxicity”. The “leakage of dye from stained A375 cells into unstained cells” value in series [3] is reported as “fast leakage”.
